# Results as given in PubChem BioAssay (NCI).
# Where “and” joins values, the source holds several entries; their conditions need not be identical. Equal entries are not always repeated.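 All cell lines were grown in 96-well plates and treated with compound for 48 hours. GI50 marks 50% less growth. TGI: total growth inhibition.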
# Experiments:
# Assay in all cases: growth of human tumour cells (NCI), 48 h
# MDA-MB-231 breast = tested on: MDA-MB-231 breast
# NCI-H460 lung = tested on: NCI-H460 lung
# UACC-62 melanoma = tested on: UACC-62 melanoma
# TK-10 renal = tested on: TK-10 renal
# OVCAR-4 ovarian = tested on: OVCAR-4 ovarian
# OVCAR-5 ovarian = tested on: OVCAR-5 ovarian
# SR leukemia = tested on: SR leukemia
# HT29 colon = tested on: HT29 colon
SMILES,TGI (MDA-MB-231 breast),TGI (NCI-H460 lung) [µM],TGI (UACC-62 melanoma),TGI (TK-10 renal),TGI (OVCAR-4 ovarian),TGI (OVCAR-5 ovarian) [µM],GI50 (MDA-MB-231 breast) [µM],GI50 (SR leukemia) [µM],TGI (SR leukemia) [µM],GI50 (HT29 colon) [µM],TGI (HT29 colon) [µM],GI50 (NCI-H460 lung) [µM],GI50 (UACC-62 melanoma) [µM],GI50 (TK-10 renal) [µM],GI50 (OVCAR-4 ovarian) [µM],GI50 (OVCAR-5 ovarian) [µM]
Cc1nc2c(-c3cnc(N)nc3)nc(N3CCOCC3)nc2n1C(C)C,> 4.14 µM and 27.1 µM,> 100,0.334 µM and 0.305 µM,0.6 µM and 0.505 µM,1.99 µM and 0.786 µM,> 3.48,–,–,–,–,–,–,–,–,–,–
CCN1CCN(C(c2ccc(C(F)(F)F)cc2)c2ccc3cccnc3c2O)CC1 (stereo not given),25.3 µM,10.8,10.4 µM,22 µM,14.3 µM,14.6,2.97,0.835,11,5.31,21,0.412,1.98,10,2.36,2.61
CC(C)=CC/C=C(/C)[C@H]1CC[C@]2(C)[C@@H]1CC[C@@H]1[C@@]3(C)CCCNC(C)(C)[C@@H]3CC[C@]12C,–,4.4,20.1 µM,27 µM,11.4 µM,15.1,–,–,–,1.71,3.67,2.11,5.5,10.6,3.33,3.86
COc1ccc(CN2C(=O)/C(=C\C(=O)c3ccc(OCCN4CCCCC4)cc3)c3ccccc32)cc1,4.56 µM,22.3,3.13 µM,3.18 µM,8.13 µM,5.94,2.15,2.04,7.4,1.8,3.57,7.67,1.67,1.69,2.62,1.88
Cc1ccc(C)c(C2=C(c3cn(C)c4ccccc34)C(=O)NC2=O)c1,> 25 µM,> 25,> 25 µM,> 25 µM,> 25 µM,> 25,> 25,5.05,> 21,> 16,> 25,> 17.4,> 25,> 25,> 25,> 25
Cc1cc(I)cc(CN(C)CCCN2CCCCCCC2)c1O,29.6 µM,28.3,18 µM,27 µM,58.5 µM,41.5,14.9,2.11,14.6,6.26,21.1,13.7,6,13.4,19.7,18.8
OC[C@H]1C[C@](O)(c2ccc(Cl)cc2)[C@@H](c2ccc(Cl)cc2)O1,46.9 µM,48.7,31.6 µM,84.3 µM,> 100 µM,71.7,19.6,0.202,16.8,23.7,50.1,20.2,16,30.5,32,25.9
COc1cnc2c(c1)C(=O)c1c-2n(CCCNC(C)C)c(=O)c2cc(Cl)ccc12,3.18 µM,1.2,1.91 µM,–,2.7 µM,3.5,1.39,0.0577,0.464,0.398,2.09,0.0372,0.303,–,1.04,1.7
CCC(C)n1ncn(-c2ccc(N3CCN(c4ccc(OCC5COC(Cn6cncn6)(c6ccc(Cl)cc6Cl)O5)cc4)CC3)cc2)c1=O (stereo not given),> 100 µM,> 100,> 100 µM,> 100 µM,> 100 µM,> 100,7.11,–,–,0.867,> 100,9.62,17.6,28.6,35.2,56.3
O=C1NC(=O)C(c2cnc3ccccn23)=C1c1cn2c3c(cc(F)cc13)CN(C(=O)N1CCCCC1)CC2,33.1 µM,29.1,22.9 µM,23.8 µM,> 63.4 µM,64.4,11.4,1.84,29.1,0.723,20,2.45,7.72,0.0416,1.5,23.5
COc1cc(C2CC(c3cccc(Br)c3)=NN2C(C)=O)cc(OC)c1OC (stereo not given),> 46 µM,11.7,29.3 µM,72.2 µM,> 100 µM,> 100,1.67,0.0402,> 100,0.284,14.9,0.344,0.309,16.5,0.624,2.93
CC(C)CCN1c2nc(Nc3cc(F)c(O)c(F)c3)ncc2N(C)C(=O)C1C (stereo not given),> 100 µM,17,23.8 µM,> 87.2 µM,> 100 µM,> 100,5.17,–,–,5.83,46.7,3.91,4.75,4.34,18.6,19.1
CS(=O)(=O)Nc1ccc2c(c1)oc(=O)c1ccccc12,> 100 µM,> 100,> 100 µM,–,> 100 µM,> 100,–,–,> 100,–,> 100,–,–,–,–,–
C=C1CC[C@@H]2[C@](C)(COC(C)=O)[C@H](OC(C)=O)CC[C@@]2(C)[C@@H]1CC(Sc1ccccc1)C1=CCOC1=O (stereo not given in full),6.3 µM,6.03,3.24 µM,5.54 µM,3.11 µM,4.67,2.47,0.553,3.66,1.77,3.77,2.24,1.3,2.83,1.36,2.46
COc1cc(C#CC(=O)OC/C=C/c2ccc3c(c2)OCO3)cc(OC)c1OC,79.4 µM,77.1,37.2 µM,60.8 µM,> 100 µM,> 100,–,–,40.5,–,> 100,–,–,–,–,–
Clc1nc2ccccc2nc1CI,9.08 µM,28.5,16.5 µM,8.7 µM,18.3 µM,22,3.14,0.638,–,3.93,13.5,11,4.32,3.94,5.34,8.26
NC(=O)NC1C(c2ccccc2)=C1c1ccccc1,38.2 µM,36,23.4 µM,53.7 µM,30.7 µM,64.4,–,–,–,–,46.1,–,–,–,–,–
